# Data reported in patent US20250195521A1 (Revolution Medicines, Inc., priority 2020, published 2025).
# How the values were obtained:
# KRAS G12S = KRAS G12S (Homo sapiens (Human), UniProt P01116+P62937, G12S); experiment: Ras-Raf disruption/FRET/MOA assay (BRAF RBD, Cyclophilin A); format: biochemical; conditions: read-out: KRAS G12S FRET IC50
# In short: (§1)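 His6-K-Ras-GMPPNP (12.5 nM), GST-BRAF RBD (50 nM) and tagless Cyclophilin A (25 μM) were combined in 25 mM HEPES pH 7.3 with 100 mM NaCl, 5 mM MgCl2, 0.1% BSA and 0.002% Tween20, with compound as a 10-point 3-fold series from 30 μM final, then incubated 3 h at 25° C.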
# KRAS Q61H = KRAS Q61H (Homo sapiens (Human), UniProt P01116+P62937, Q61H); experiment: as above; format: biochemical
# Sequence of KRAS Q61H (P01116 other isoform, or with tags, fused parts or gaps Q61H): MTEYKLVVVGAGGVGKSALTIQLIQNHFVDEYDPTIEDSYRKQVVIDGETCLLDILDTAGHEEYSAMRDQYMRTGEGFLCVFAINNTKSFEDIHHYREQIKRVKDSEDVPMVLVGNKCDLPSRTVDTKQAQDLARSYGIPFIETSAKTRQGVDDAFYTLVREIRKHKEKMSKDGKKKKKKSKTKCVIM
# Sequence of KRAS Q61H (P62937 whole entry): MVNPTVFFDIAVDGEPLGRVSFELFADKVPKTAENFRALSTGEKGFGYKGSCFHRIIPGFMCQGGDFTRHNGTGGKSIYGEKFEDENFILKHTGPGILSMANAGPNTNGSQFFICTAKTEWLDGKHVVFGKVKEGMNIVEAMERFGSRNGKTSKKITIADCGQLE
# In short: as §1
# KRAS G12V = KRAS G12V (Homo sapiens (Human), UniProt P01116+P62937, G12V); experiment: as above; format: biochemical; conditions: read-out: KRAS G12V FRET IC50
# Sequence of KRAS G12V (P01116 other isoform, or with tags, fused parts or gaps G12V): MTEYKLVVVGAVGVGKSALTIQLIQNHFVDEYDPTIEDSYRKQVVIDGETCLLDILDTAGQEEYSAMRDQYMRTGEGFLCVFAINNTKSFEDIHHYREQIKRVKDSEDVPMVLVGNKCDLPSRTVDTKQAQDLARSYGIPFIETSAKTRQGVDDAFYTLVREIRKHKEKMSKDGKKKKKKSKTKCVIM
# Sequence of KRAS G12V (P62937 whole entry): as the sequence (P62937 whole entry) above
# In short: as §1
# KRAS G13D = KRAS G13D (Homo sapiens (Human), UniProt P01116+P62937, G13D); experiment: as above; format: biochemical; conditions: read-out: KRAS G13D FRET data IC50
# Sequence of KRAS G13D (P01116 other isoform, or with tags, fused parts or gaps G13D): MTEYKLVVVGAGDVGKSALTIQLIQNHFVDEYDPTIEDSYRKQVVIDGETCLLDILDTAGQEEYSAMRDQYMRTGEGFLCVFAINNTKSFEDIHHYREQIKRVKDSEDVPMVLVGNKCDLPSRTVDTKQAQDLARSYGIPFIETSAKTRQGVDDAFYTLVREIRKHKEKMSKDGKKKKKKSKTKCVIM
# Sequence of KRAS G13D (P62937 whole entry): as the sequence (P62937 whole entry) above
# In short: as §1
# KRAS WT = KRAS WT (Homo sapiens (Human), UniProt P01116+P62937); experiment: as above; format: biochemical; conditions: read-out: KRAS WT FRET data IC50
# Sequence of KRAS WT (P01116 other isoform, or with tags, fused parts or gaps): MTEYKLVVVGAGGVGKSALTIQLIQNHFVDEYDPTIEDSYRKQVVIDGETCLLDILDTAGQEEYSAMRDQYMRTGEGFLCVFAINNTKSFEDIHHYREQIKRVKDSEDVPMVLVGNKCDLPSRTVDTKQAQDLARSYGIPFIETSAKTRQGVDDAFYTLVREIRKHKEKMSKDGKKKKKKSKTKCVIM
# Sequence of KRAS WT (P62937 whole entry): as the sequence (P62937 whole entry) above
# In short: as §1
# NRAS Q61R = NRAS Q61R (Homo sapiens (Human), UniProt P01111+P62937, Q61R); experiment: as above; format: biochemical
# Sequence of NRAS Q61R (P01111 whole entry Q61R): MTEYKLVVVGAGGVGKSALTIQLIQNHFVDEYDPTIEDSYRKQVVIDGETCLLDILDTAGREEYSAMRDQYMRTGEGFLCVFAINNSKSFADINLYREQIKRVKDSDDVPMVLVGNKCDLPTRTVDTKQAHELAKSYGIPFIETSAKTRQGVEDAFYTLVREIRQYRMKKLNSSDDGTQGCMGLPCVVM
# Sequence of NRAS Q61R (P62937 whole entry): as the sequence (P62937 whole entry) above
# In short: (§2)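 First, 25 μM Cyclophilin A, 12.5 nM His6-Ras-GMPPNP and 50 nM GST-BRAF RBD are mixed with diluted compound at pH 7.3. Next, 3 h at 25° C. Then 10 nM anti-His Eu-W1024 plus 50 nM anti-GST allophycocyanin for 1.5 h before TR-FRET reading.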
# NRAS Q61K = NRAS Q61K (Homo sapiens (Human), UniProt P01111+P62937, Q61K); experiment: as above; format: biochemical
# Sequence of NRAS Q61K (P01111 whole entry Q61K): as the sequence (P01111 whole entry Q61R) above, with R61K counted along it
# Sequence of NRAS Q61K (P62937 whole entry): as the sequence (P62937 whole entry) above
# In short: as §2
# KRAS G12D = KRAS G12D (Homo sapiens (Human), UniProt P01116+P62937, G12D); experiment: as above; format: biochemical; conditions: read-out: KRAS G12D FRET IC50
# Sequence of KRAS G12D (P01116 other isoform, or with tags, fused parts or gaps G12D): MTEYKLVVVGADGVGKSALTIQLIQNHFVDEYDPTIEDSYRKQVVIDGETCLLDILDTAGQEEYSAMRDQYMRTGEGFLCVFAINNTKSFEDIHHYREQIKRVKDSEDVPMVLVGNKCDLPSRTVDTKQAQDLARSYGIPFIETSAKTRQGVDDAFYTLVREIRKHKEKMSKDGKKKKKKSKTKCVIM
# Sequence of KRAS G12D (P62937 whole entry): as the sequence (P62937 whole entry) above
# In short: as §1
# KRAS G12C = KRAS G12C (Homo sapiens (Human), UniProt P01116+P62937, G12C); experiment: as above; format: biochemical; conditions: read-out: KRAS G12C FRET IC50
# Sequence of KRAS G12C (P01116-2 other isoform, or with tags, fused parts or gaps G12C): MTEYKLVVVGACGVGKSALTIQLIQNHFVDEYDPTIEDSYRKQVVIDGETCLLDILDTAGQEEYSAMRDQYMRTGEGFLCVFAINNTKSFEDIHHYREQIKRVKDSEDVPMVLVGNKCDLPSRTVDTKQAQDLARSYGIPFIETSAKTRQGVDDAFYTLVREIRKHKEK
# Sequence of KRAS G12C (P62937 whole entry): as the sequence (P62937 whole entry) above
# In short: as §1
# KRAS G13C = KRAS G13C (Homo sapiens (Human), UniProt P01116+P62937, G13C); experiment: as above; format: biochemical; conditions: read-out: KRAS G13C FRET IC50
# Sequence of KRAS G13C (P01116 other isoform, or with tags, fused parts or gaps G13C): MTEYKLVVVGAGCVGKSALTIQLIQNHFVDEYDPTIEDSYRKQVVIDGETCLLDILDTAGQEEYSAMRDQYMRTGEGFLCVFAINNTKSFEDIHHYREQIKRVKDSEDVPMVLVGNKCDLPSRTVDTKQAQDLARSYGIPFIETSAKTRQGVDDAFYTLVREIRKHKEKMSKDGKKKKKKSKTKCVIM
# Sequence of KRAS G13C (P62937 whole entry): as the sequence (P62937 whole entry) above
# In short: as §1
# NRAS G12C = NRAS G12C (Homo sapiens (Human), UniProt P01111+P62937, G12C); experiment: as above; format: biochemical; conditions: read-out: NRAS G12C FRET data IC50
# Sequence of NRAS G12C (P01111 whole entry G12C): as the sequence (P01111 whole entry Q61R) above, with G12C, R61Q counted along it
# Sequence of NRAS G12C (P62937 whole entry): as the sequence (P62937 whole entry) above
# In short: as §2
# NRAS WT = NRAS WT (Homo sapiens (Human), UniProt P01111+P62937); experiment: as above; format: biochemical
# Sequence of NRAS WT (P01111 whole entry): as the sequence (P01111 whole entry Q61R) above, with R61Q counted along it
# Sequence of NRAS WT (P62937 whole entry): as the sequence (P62937 whole entry) above
# In short: as §2
# [1] = tested on: NCI-H358 cells (K-Ras G12C); experiment: CellTiter-Glo cell viability, NCI-H358; format: cell-based, human; conditions: Homo sapiens, NCI-H358, 120 h, K-Ras G12C, 5-day treatment; read-out: H358 Cell Viability IC50
# In short: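 Cells seeded, compound dispensed straight into wells, 5-day exposure. Plates brought to room temperature ~30 min, CellTiter-Glo luminescence measured. Normalized to DMSO (%), 4-parameter logistic fit.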
# Sequence of KRAS G12S (P01116 other isoform, or with tags, fused parts or gaps G12S): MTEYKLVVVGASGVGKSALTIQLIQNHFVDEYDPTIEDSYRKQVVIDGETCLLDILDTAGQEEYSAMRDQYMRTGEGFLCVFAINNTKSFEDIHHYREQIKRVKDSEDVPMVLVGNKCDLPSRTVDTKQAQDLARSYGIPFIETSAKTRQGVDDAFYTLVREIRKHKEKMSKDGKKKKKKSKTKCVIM
# Sequence of KRAS G12S (P62937 whole entry): as the sequence (P62937 whole entry) above
SMILES,IC50 (KRAS G12S) [nM],IC50 (KRAS Q61H) [nM],IC50 (KRAS G12V) [nM],IC50 (KRAS G13D) [nM],IC50 (KRAS WT) [nM],IC50 (NRAS Q61R) [nM],IC50 (NRAS Q61K) [nM],IC50 (KRAS G12D) [nM],IC50 (KRAS G12C) [nM],IC50 (KRAS G13C) [nM],IC50 (NRAS G12C) [nM],IC50 (NRAS WT) [nM],IC50 [1] [nM]
CCn1c(-c2cc(N3CCN(C)CC3)cnc2[C@H](C)OC)c2c3cc(ccc31)-c1csc(n1)C[C@H](NC(=O)[C@H](C(C)C)N(C)C(=O)[C@H]1CCCS1(=O)=O)C(=O)N1CCC[C@H](N1)C(=O)OCC(C)(C)C2 [Compound A439],1000 to 10000,100 to 1000,1000 to 10000,1000 to 10000,100 to 1000,100 to 1000,100 to 1000,1000 to 10000,100 to 1000,100 to 1000,100 to 1000,100 to 1000,< 10
CCn1c(-c2cccnc2[C@H](C)OC)c2c3cc(ccc31)-c1csc(n1)C[C@H](NC(=O)[C@H](C(C)C)N(C)C(=O)N1CC[C@H]1CN)C(=O)N1CCC[C@H](N1)C(=O)OCC(C)(C)C2 [Compound A463],100 to 1000,100 to 1000,100 to 1000,100 to 1000,100 to 1000,1000 to 10000,1000 to 10000,100 to 1000,100 to 1000,100 to 1000,100 to 1000,100 to 1000,
CCn1c(-c2cccnc2[C@H](C)OC)c2c3cc(ccc31)-c1csc(n1)C[C@H](NC(=O)[C@H](C(C)C)N(C)C(=O)N1CC[C@@H]1CN)C(=O)N1CCC[C@H](N1)C(=O)OCC(C)(C)C2 [Compound A558],10 to 100,10 to 100,100 to 1000,10 to 100,10 to 100,100 to 1000,100 to 1000,100 to 1000,10 to 100,100 to 1000,10 to 100,10 to 100,
CCn1c(-c2cccnc2[C@H](C)OC)c2c3cc(ccc31)-c1csc(n1)C[C@H](NC(=O)[C@H](C(C)C)N(C)C(=O)N1CCN(C(=O)[C@@H]3CCCN3C)CC1)C(=O)N1CCC[C@H](N1)C(=O)OCC(C)(C)C2 [Compound A596],100 to 1000,10 to 100,100 to 1000,100 to 1000,10 to 100,100 to 1000,,100 to 1000,10 to 100,100 to 1000,10 to 100,10 to 100,10 to 100

# Results, then the compound that gave them:
IC50 (KRAS G12S) [nM],IC50 (KRAS Q61H) [nM],IC50 (KRAS G12V) [nM],IC50 (KRAS G13D) [nM],IC50 (KRAS WT) [nM],IC50 (NRAS Q61R) [nM],IC50 (NRAS Q61K) [nM],IC50 (KRAS G12D) [nM],IC50 (KRAS G12C) [nM],IC50 (KRAS G13C) [nM],IC50 (NRAS G12C) [nM],IC50 (NRAS WT) [nM],IC50 [1] [nM],SMILES
100 to 1000,100 to 1000,100 to 1000,1000 to 10000,100 to 1000,1000 to 10000,100 to 1000,1000 to 10000,100 to 1000,100 to 1000,100 to 1000,100 to 1000,100 to 1000,CCn1c(-c2cccnc2[C@H](C)OC)c2c3cc(ccc31)-c1csc(n1)C[C@H](NC(=O)C1(F)CC1)C(=O)N1CCC[C@H](N1)C(=O)OCC(C)(C)C2 [Compound A362]
10 to 100,10 to 100,100 to 1000,100 to 1000,10 to 100,100 to 1000,100 to 1000,100 to 1000,10 to 100,10 to 100,10 to 100,10 to 100,10 to 100,CCn1c(-c2cccnc2[C@H](C)OC)c2c3cc(ccc31)-c1cc(O)cc(c1)C[C@H](NC(=O)[C@H](C(C)C)N(C)C(=O)C13CC(CO1)C3)C(=O)N1CCC[C@H](N1)C(=O)OCC(C)(C)C2 [Compound A406]
1000 to 10000,100 to 1000,1000 to 10000,1000 to 10000,100 to 1000,100 to 1000,100 to 1000,1000 to 10000,100 to 1000,1000 to 10000,100 to 1000,100 to 1000,10 to 100,CCn1c(-c2cc(N3CCN(C)CC3)cnc2[C@H](C)OC)c2c3cc(ccc31)-c1csc(n1)C[C@H](NC(=O)[C@H](C(C)C)N(C)C(=O)[C@@H]1CCCS1(=O)=O)C(=O)N1CCC[C@H](N1)C(=O)OCC(C)(C)C2 [Compound A440]
1000 to 10000,100 to 1000,1000 to 10000,1000 to 10000,1000 to 10000,1000 to 10000,100 to 1000,1000 to 10000,100 to 1000,100 to 1000,100 to 1000,1000 to 10000,100 to 1000,CCn1c(-c2cccnc2[C@H](C)OC)c2c3cc(ccc31)-c1csc(n1)C[C@H](NC(=O)[C@H](C(C)C)N(C)C(=O)N1C[C@H]3CN(C)CC[C@H]31)C(=O)N1CCC[C@H](N1)C(=O)OCC(C)(C)C2 [Compound A462]
